Data reported in patent EP0942911B1, “BENZOPYRANOPYRROLE AND BENZOPYRANOPYRIDINE ALPHA-1 ADRENERGIC COMPOUNDS” (Abbott Laboratories, priority 1996, dated 1998).
Where a name gives a salt, the structure may show the parent alone. Read-outs that look alike come from different tables or passages of the source.

What was measured:
Test in all cases: biochemical
[1] = biological target: T1, α-1A adrenoreceptor (rat submaxillary gland) (Rattus norvegicus, UniProt P43140); type: binding; settings: read-out: Radioligand Binding (Ki, nM) 1A (Rat)
T1 sequence (P43140 1-466): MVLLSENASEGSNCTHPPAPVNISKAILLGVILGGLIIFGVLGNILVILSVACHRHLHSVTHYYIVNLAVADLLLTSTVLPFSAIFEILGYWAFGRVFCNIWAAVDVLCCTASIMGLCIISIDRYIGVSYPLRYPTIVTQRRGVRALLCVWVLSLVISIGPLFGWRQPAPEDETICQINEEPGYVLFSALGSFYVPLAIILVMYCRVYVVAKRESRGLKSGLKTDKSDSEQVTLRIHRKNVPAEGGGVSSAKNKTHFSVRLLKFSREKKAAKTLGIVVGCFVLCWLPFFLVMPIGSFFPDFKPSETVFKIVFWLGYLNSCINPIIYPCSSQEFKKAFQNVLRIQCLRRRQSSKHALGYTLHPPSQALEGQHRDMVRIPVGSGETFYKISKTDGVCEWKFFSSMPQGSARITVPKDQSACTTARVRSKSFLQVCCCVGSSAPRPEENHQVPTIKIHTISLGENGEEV
Outline: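 Membranes were prepared from rat submaxillary glands as the α-1A adrenoreceptor source. Competition binding followed Greengrass and Bremner, with bound radioligand measured by scintillation counting.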

α-1b adrenoreceptor = biological target: T2, α-1b adrenoreceptor (Mesocricetus auratus, UniProt P18841); type: binding, hamster; settings: read-out: Radioligand Binding (Ki, nM) 1b (Hamster)
T2 sequence (P18841 1-515): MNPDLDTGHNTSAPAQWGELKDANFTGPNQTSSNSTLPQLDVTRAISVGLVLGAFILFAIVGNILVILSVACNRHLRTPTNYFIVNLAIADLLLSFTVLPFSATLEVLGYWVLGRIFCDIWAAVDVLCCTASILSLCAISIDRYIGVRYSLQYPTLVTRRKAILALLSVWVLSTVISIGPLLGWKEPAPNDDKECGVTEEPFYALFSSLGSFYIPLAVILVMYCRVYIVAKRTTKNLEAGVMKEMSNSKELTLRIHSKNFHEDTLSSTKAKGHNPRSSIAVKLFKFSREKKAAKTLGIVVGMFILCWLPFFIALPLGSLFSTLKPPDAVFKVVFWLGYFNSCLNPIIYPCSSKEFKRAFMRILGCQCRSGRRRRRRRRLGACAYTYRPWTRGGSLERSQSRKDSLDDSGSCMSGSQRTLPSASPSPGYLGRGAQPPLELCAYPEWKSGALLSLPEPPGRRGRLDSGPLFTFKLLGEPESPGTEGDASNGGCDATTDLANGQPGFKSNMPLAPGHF
Outline: (§1)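 Radioactivity counted by liquid scintillation after radioligand binding to membranes. Receptors: cloned α-1a, α-1b, α-1d stably expressed in LTK mouse fibroblasts (G418 selection, SV40 early promoter); rat submaxillary gland membranes for pharmacologically defined α-1A.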

α-1d adrenoreceptor = biological target: T3, α-1d adrenoreceptor (Rattus norvegicus, UniProt P23944); type: binding; settings: read-out: Radioligand Binding (Ki, nM) 1d (Rat)
T3 sequence (P23944 1-561): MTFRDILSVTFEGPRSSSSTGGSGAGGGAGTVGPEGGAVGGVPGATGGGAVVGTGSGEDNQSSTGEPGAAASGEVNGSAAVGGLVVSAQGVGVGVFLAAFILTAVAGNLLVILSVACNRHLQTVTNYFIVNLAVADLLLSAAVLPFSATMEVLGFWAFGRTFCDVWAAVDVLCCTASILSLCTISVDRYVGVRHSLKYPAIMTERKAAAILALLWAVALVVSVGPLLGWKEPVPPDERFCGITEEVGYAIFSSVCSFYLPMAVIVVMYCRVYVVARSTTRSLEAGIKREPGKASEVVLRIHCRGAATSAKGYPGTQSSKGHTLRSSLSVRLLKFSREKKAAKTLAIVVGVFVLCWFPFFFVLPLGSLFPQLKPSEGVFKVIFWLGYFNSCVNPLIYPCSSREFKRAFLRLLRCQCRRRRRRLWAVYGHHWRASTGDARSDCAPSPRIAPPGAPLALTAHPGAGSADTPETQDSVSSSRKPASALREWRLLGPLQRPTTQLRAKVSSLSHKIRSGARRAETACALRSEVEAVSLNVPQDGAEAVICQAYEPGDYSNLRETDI
Outline: as §1

α-1a adrenoreceptor = biological target: T4, α-1a adrenoreceptor (Bos taurus, UniProt P18130); type: binding, bovine; settings: read-out: Radioligand Binding (Ki, nM) 1a (Bovine)
T4 sequence (P18130 1-466): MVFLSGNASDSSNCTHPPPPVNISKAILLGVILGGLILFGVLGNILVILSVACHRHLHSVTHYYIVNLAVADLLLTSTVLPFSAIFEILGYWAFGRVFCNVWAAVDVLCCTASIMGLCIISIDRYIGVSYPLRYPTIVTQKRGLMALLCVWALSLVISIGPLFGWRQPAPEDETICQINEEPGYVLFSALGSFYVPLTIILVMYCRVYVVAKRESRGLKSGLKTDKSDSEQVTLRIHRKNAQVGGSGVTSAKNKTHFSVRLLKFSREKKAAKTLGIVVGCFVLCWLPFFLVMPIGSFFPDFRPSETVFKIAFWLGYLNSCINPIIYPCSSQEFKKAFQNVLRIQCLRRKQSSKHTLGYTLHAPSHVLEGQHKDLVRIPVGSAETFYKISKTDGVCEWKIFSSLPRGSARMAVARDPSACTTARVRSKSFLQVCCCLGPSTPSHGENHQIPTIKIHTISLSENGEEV
Outline: as §1

[2] = [3H]-prazosin radioligand, rat submaxillary gland membranes
[3] = [3H]-prazosin radioligand, cloned receptor in LTK cell membranes

SMILES | Ki [1, 2] [nM] | Ki (α-1b adrenoreceptor; [3]) [nM] | Ki (α-1d adrenoreceptor; [3]) [nM] | Ki (α-1a adrenoreceptor; [3]) [nM] | Ki [1] [nM] | Ki (α-1b adrenoreceptor) [nM] | Ki (α-1d adrenoreceptor) [nM] | Ki (α-1a adrenoreceptor) [nM]
COc1cc2[nH]c(=O)n(CCCN3CC[C@H]4c5c(OC)cccc5OC[C@@H]4C3)c(=O)c2cc1OC (racemic) [Example 83, 3-[3-(±)-trans-10-Methoxy-1,3,4,4a,5,10b-hexahydro-2H-[1]-benzopyrano[3,4-c]pyrido-3-yl)propyl]-6,7-dimethoxy-quinazoline-2,4(1H,3H)-dione hydrochloride] | 0.383 | 3.07 | 0.807 | 0.217 | – | – | – | –
COc1ccc2c(c1)[C@@H]1CN(CCCCn3c(=O)[nH]c4c(sc5nccnc54)c3=O)C[C@@H]1CO2 (racemic) [Example 76, 3-[4-((±)-cis-8-Methoxy-1,2,3,3a,4,9b-hexahydro-[1]-benzopyrano[3,4-c]pyrrol-2-yl)butyl]-pyrazino[2',3':4,5]thieno[3,2-d]pyrimidine-2,4(1H,3H)-dione hydrochloride] | – | – | – | – | 11.7 | 78.6 | 12.9 | 6.21
COc1ccc2c(c1)[C@@H]1CN(CCCCn3c(=O)[nH]c4c(sc5ncccc54)c3=O)C[C@@H]1CO2 (racemic) [Example 75, 3-[4-((±)-cis-8-Methoxy-1,2,3,3a,4,9b-hexahydro-[1]-benzopyrano[3,4-c]pyrrol-2-yl)butyl]-pyrido[3',2':4,5]thieno[3,2-d]pyrimidine-2,4(1H,3H)-dione dihydrochloride] | – | – | – | – | 5.73 | 52.1 | 18.3 | 1.89
COCCn1c(=O)n(CCCCN2C[C@@H]3COc4cccc(OC)c4[C@H]3C2)c(=O)c2sc3nccnc3c21 [Example 11, 3-[4-((3aR,9bS)-trans-9-Methoxy-1,2,3,3a,4,9b-hexahydro-[1]-benzopyrano[3,4-c]pyrrol-2-yl)butyl]-1-(2-Methoxyethyl)-pyrazino[2',3':4,5]thieno[3,2-d]pyrimidine-2,4(1H,3H)-dione hydrochloride] | 0.374 | 3.78 | 1.46 | 0.243 | – | – | – | –
COc1cccc2c1[C@H]1CN(CCCCn3c(=O)[nH]c4c(sc5cccnc54)c3=O)C[C@@H]1CO2 (racemic) [Example 72, 3-[4-((±)-trans-9-Methoxy-1,2,3,3a,4,9b-hexahydro-[1]-benzopyrano[3,4-c]pyrrol-2-yl)butyl]-pyrido[2',3':4,5]thieno[3,2-d]pyrimidine-2,4(1H,3H)-dione dihydrochloride] | – | – | – | – | 0.107 | 3.54 | 0.804 | 0.133
COc1cccc2c1[C@@H]1CCN(CCCCn3c(=O)[nH]c4c(sc5ncc(-c6ccccc6)nc54)c3=O)C[C@H]1CO2 [Example 100, 3-[4-((4aS,10bR)-trans-10-Methoxy-1,3,4,4a,5,10b-hexahydro-2H-[1]-benzopyrano[3,4-c]pyrido-3-yl)butyl]-8-phenyl-pyrazino[2',3':4,5]thieno[3,2-d]pyrimidine-2,4(1H,3H)-dione hydrochloride] | 30.5 | 27 | 7.59 | 5.83 | – | – | – | –
COc1cccc2c1[C@H]1CN(CCCCn3c(=O)[nH]c4c(sc5ccc(Cl)nc54)c3=O)C[C@@H]1CO2 [Example 6, 3-[4-((3aR,9bS)-trans-9-Methoxy-1,2,3,3a,4,9b-hexahydro-[1]-benzopyrano[3,4-c]pyrrol-2-yl)butyl]-8-chloro-pyrido[2',3':4,5]thieno[3,2-d]pyrimidine-2,4(1H,3H)-dione dihydrochloride] | 0.409 | 2 | 0.302 | 0.173 | – | – | – | –
COc1cccc2c1[C@@H]1CN(CCCCn3c(=O)[nH]c4c(sc5cccnc54)c3=O)C[C@@H]1CO2 (racemic) [Example 73, 3-[4-((±)-cis-9-Methoxy-1,2,3,3a,4,9b-hexahydro-[1]-benzopyrano[3,4-c]pyrrol-2-yl)butyl]-pyrido[2',3':4,5]thieno[3,2-d]pyrimidine-2,4[1H,3H)-dione dihydrochloride] | – | – | – | – | 0.087 | 1.31 | 0.187 | 0.038
COc1cccc2c1[C@@H]1CN(CCCCn3c(=O)[nH]c4c(sc5ccc(-c6cccnc6)nc54)c3=O)C[C@@H]1CO2 [Example 56, 3-[4-((3aR,9bR)-cis-9-Methoxy-1,2,3,3a,4,9b-hexahydro-[1]-benzopyrano[3,4-c]pyrrol-2-yl)butyl]-8-(3-pyridyl)-pyrido[2',3';4,5]thieno[3,2-d]pyrimidine-2,4(1H,3H)-dione dihydrochloride] | 0.614 | 10.2 | 1.31 | 0.078 | – | – | – | –
COc1cnc2c(c1)sc1c(=O)n(CCCCN3C[C@H]4COc5cccc(OC)c5[C@@H]4C3)c(=O)[nH]c12 [Example 27, 3-[4-((3aS,9bR)-trans-9-Methoxy-1,2,3,3a,4,9b-hexahydro-[1]-benzopyrano[3,4-c]pyrrol-2-yl)butyl]-7-methoxy-pyrido[2',3':4,5]thieno[3,2-d]pyrimidine-2,4(1H,3H)-dione hydrochloride] | 0.121 | 0.974 | 0.094 | 0.044 | – | – | – | –
COc1cccc2c1[C@@H]1CN(CCCCn3c(=O)[nH]c4c(sc5ncc(-c6cccnc6)nc54)c3=O)C[C@@H]1CO2 [Example 61, 3-[4-((3aR,9bR)-cis-9-Methoxy-1,2,3,3a,4,9b-hexahydro-[1]-benzopyrano[3,4-c]pyrrol-2-yl)butyl]-8-(3-pyridyl)-pyrazino[2',3':4,5]thieno[3,2-d]pyrimidine-2,4(1H,3H)-dione dihydrochloride] | 0.152 | 8.85 | 0.336 | 0.15 | – | – | – | –
COc1cccc2c1[C@@H]1CCN(CCCCn3c(=O)[nH]c4c(sc5ccc(-c6ccccc6)nc54)c3=O)C[C@H]1CO2 [Example 101, 3-[4-((4aS,10bR)-trans-10-Methoxy-1,3,4,4a,5,10b-hexahydro-2H-[1]-benzopyrano[3,4-c]pyrido-3-yl)butyl]-8-phenyl-pyrido[2',3':4,5]thieno[3,2-d]pyrimidine-2,4(1H,3H)-dione dihydrochloride] | 1.27 | 8.41 | 0.597 | 0.063 | – | – | – | –
